From PubChem BioAssay (NCI)
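Five compound concentrations were applied to cells in 96-well plates for 48 hours; endpoints were derived by simple linear interpolation of the resulting dose-response curve. TGI denotes the concentration required for complete inhibition of growth.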

What was measured:
Experiment in all cases: NCI-60 cell line screen, 48 h
[1] = system: SK-MEL-2 melanoma
[2] = system: NCI-H226 lung
[3] = system: SN12C renal
[4] = system: IGROV1 ovarian
[5] = system: MALME-3M melanoma
[6] = system: XF 498 CNS
[7] = system: A549 NSCLC
[8] = system: HCT-116 colon
[9] = system: OVCAR-5 ovarian
[10] = system: LOX IMVI melanoma
[11] = system: HCC-2998 colon
[12] = system: HCT-15 colon
[13] = system: OVCAR-8 ovarian
[14] = system: COLO 205 colon
[15] = system: SK-OV-3 ovarian
[16] = system: SF-268 CNS
[17] = system: ACHN renal
[18] = system: LXFL 529 NSCLC
[19] = system: A498 renal
[20] = system: HOP-92 NSCLC
[21] = system: DMS 273 small cell lung
[22] = system: SK-MEL-5 melanoma
[23] = system: 786-0 renal
[24] = system: NCI-H522 lung
[25] = system: NCI-H460 lung
[26] = system: CCRF-CEM leukemia
[27] = system: KM20L2 colon
[28] = system: SK-MEL-28 melanoma
[29] = system: DLD-1 colon
[30] = system: M19-MEL melanoma
[31] = system: OVCAR-4 ovarian
[32] = system: SF-295 CNS
[33] = system: SW-620 colon
[34] = system: SNB-78 CNS
[35] = system: MOLT-4 leukemia
[36] = system: KM12 colon
[37] = system: NCI-H23 lung
[38] = system: CAKI-1 renal
[39] = system: U251 CNS
[40] = system: SNB-75 CNS
[41] = system: SF-539 CNS
[42] = system: HOP-62 NSCLC
[43] = system: M14 melanoma
[44] = system: EKVX NSCLC
[45] = system: UO-31 renal
[46] = system: SR leukemia
[47] = system: RPMI-8226 leukemia
[48] = system: HT29 colon
[49] = system: OVCAR-3 ovarian
[50] = system: TK-10 renal
[51] = system: HL-60(TB) leukemia
[52] = system: SNB-19 CNS
[53] = system: UACC-62 melanoma
[54] = system: K-562 leukemia
[55] = system: RXF 393 renal
[56] = system: HOP-18 NSCLC
[57] = system: DMS 114 small cell lung
[58] = system: UACC-257 melanoma

Measured: TGI

CCCCNC(=NCc1ccccc1)NC#N
not listed: [54] | [55] | [56] | [57] | [58]
> 100 µM: all other assays above

Cc1ccc(NC(=O)CSc2nnc(Cc3ccccc3)o2)cc1
not listed: [6] | [20] | [46] | [51]
> 100 µM: all other assays above
